This is an account of results in US20190247322A1, “Active Mixture of 1,2-hexanediol and 1,2-octanediol” (Symrise AG, priority 2015, published 2019).

For series [1] the following is noted: water (20° dH) at 20° C., solid active agent; cited from earlier work.
A further series relates to Staphylococcus aureus. Kind of series: Antimicrobial activity, minimum inhibitory concentration. The class given is cell-based. The source says: (§1) Antimicrobial activity of a mixture of 1,2-hexanediol and 1,2-octanediol (1:1) was investigated compared to the individual 1,2-diols with regard to 5 prominent microorganisms:
(§2) EC Echerichia coli PA Pseudomonas aeruginosa SA Staphylococcus aureus CA Candida albicans AN Aspergillus niger
(§3) Shown are the minimum inhibitory concentrations (MICs) in percent.

The next series has as its system Pseudomonas aeruginosa. The description is as above. It counts as cell-based.
Text: as §1, §2, §3

In a further series the test system is Echerichia coli. Described as above. The class given is cell-based.
Text: as §1, §2, §3

Another series concerns Aspergillus niger. The description is as above. The class given is cell-based.
Text: as §1, §2, §3

A further series concerns Candida albicans. The description is as above. The class given is cell-based.
Text: as §1, §2, §3

With `Nc1nc2c(ncn2COCCO)c(=O)[nH]1` [Acyclovir, 2-Amino-1,9-dihydro-9-((2-hydroxyethoxy)methyl)-6H-Purin-6-one], the solubility in water result in series [1] is “less than 5 g/L”.

Regarding `CCCCC(O)CO` (centres unmarked) [Comparative Example C1, 1,2-hexanediol], the “minimum inhibitory concentration (MIC), SA” value with Staphylococcus aureus is 2.50%. The “minimum inhibitory concentration (MIC), PA” value with Pseudomonas aeruginosa is listed as 0.63%. Also, the “minimum inhibitory concentration (MIC), EC” value with Echerichia coli is 1.25%. The “minimum inhibitory concentration (MIC), AN” value with Aspergillus niger was determined as 0.63%. Also, in the series with Candida albicans, the “minimum inhibitory concentration (MIC), CA” value is 1.25%.

For `CCCCCCC(O)CO` (centres unmarked) [Comparative Example C2, 1,2-octanediol], the “minimum inhibitory concentration (MIC), SA” value with Staphylococcus aureus was determined as 1.25%. Also, the “minimum inhibitory concentration (MIC), PA” value in the series with Pseudomonas aeruginosa is on record as 0.63%. Further, the “minimum inhibitory concentration (MIC), EC” value in the series on Echerichia coli amounted to 0.63%. Besides, the “minimum inhibitory concentration (MIC), AN” value with Aspergillus niger is on record as 0.16%. Besides, in the series with Candida albicans, the “minimum inhibitory concentration (MIC), CA” value is recorded as 0.31%.
